Where “and” joins values, the source holds several entries; their conditions need not be identical. Equal entries are not always repeated.
System: 292921-168-R-J2-PDC spheroids with HUVEC/MSC, viability
Assay: Anticancer human tumor 292921-168-R-J2-PDC patient-derived pancreatic carcinoma cell line growth inhibition [TAK]
Settings: for viability, T/C: stronger effect = lower value
Description: Combinatorial screen of targeted agents with TAK-243 and ipatasertib in multi-cell type tumor spheroids
A high-throughput screen of multi-cell type tumor spheroids was designed to identify active combinations of targeted small molecules and TAK-243 or ipatasertib. Complex spheroids include a stromal component modeled by human endothelial cells (HUVEC) and fibroblasts modeled by human mesenchymal stem cells (MSCs). The concentration ranges selected for each drug and investigational agent were based upon clinically achievable concentrations if the clinical Cmax of the agent was known.
Compounds. The drugs and investigational agents: TAK-243 (785004), ipatasertib (767898), everolimus (733504), selumetinib (741078), bortezomib (756655), trametinib (758246), ixazomib (758254), vemurafenib (761431), dabrafenib (764134), sapanisertib (764658), alpelisib (765974), and copanlisib (816437), were obtained from the National Cancer Institute (NCI) Developmental Therapeutics Program Chemical Repository. The FDA-approved anticancer drug set is available from the NCI Developmental Therapeutics Program. […] The stock solutions were prepared in dimethyl sulfoxide (DMSO, Sigma-Aldrich, St. Louis, MO, cat. D2650) at 800-fold the tested concentration and stored at -70 degrees C prior to their use. All drugs and investigational agents were tested over a range starting from a high concentration at or near the clinical Cmax and decreasing in half-log increments. If the clinical Cmax for an agent had not been determined, the highest concentration tested was 10 microM.
NCI60 Cell Culture. NCI60 cell lines were obtained from the NCI Developmental Therapeutics Program Tumor Repository. For each lot of cells, the Repository performed Applied Biosystems AmpFLSTR Identifiler testing with PCR amplification to confirm consistency with the published Identifier STR profile for each cell line. Cells were kept in continuous culture for no more than 20 passages. The optimal seeding densities for each of the cell lines at each time point assessed were determined prior to performing the concentration response studies. Briefly, the NCI60 human tumor lines were grown as monolayers in RPMI 1640 medium supplemented with 10% FBS and 2 mmol/L L-glutamine.
An additional 2 lines were from the NCI60 cell line panel including melanomas, MALME-3M and SK-MEL-2. Pooled donor human umbilical vein endothelial cells (HUVEC, Lonza, cat. CC-2519) and human mesenchymal stem cells (hMSC, Lonza, cat. PT-2501) were purchased from Lonza (Walkersville, MD).
PDMR cell lines were grown in complete medium (DC medium): Dulbecco's modified Eagle's medium (DMEM)/F12 supplemented with 5% fetal bovine serum (FBS), 2 mM L-glutamine, 100 U/mL penicillin and 100 µg/ml streptomycin, 0.4 µg/ml hydrocortisone, 10 ng/ml epidermal growth factor (EGF) recombinant human protein, 24 µg/mL adenine, and 0.1 mg/mL primocin. During culture from frozen stock vials, PDMR cells were cultured in the same medium containing 10 µM Y-27632 (see Table 3). The PDCs were cultured in complete DMEM/F12 media without 10 microM Y-27632 dihydrochloride for at least two passages prior to the screen. The pooled donor HUVEC and hMSC were cultured in endothelial cell growth medium 2 (PromoCell, Heidelberg, Germany, cat. C-22011) and mesenchymal stem cell growth medium 2 (PromoCell, cat. C-28009), respectively. For all experiments, HUVEC and hMSC were used at passages </=5.
For the pre-screen, cell seeding densities were determined from a titration spanning the range from 5,000 to 313 cells per well. The mct-spheroids including 60% malignant cells, 25% HUVEC and 15% MSC dispensed as a mixture into U-bottom Ultra-Low Attachment 384-well plates (Corning, NY)
High-throughput Drug Combination Screening.
Prior to their inoculation into 384-well plates, malignant cells, HUVEC, and hMSC were removed from T flasks using TrypLE express (Thermo Fisher Scientific, cat. 12605036) and harvested by centrifugation for 5 min at 233 x g. […]
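Note: spheroids exposed to drugs for seven days before readout.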

Compound: CC(=O)Nc1cccc(-n2c(=O)n(C3CC3)c(=O)c3c(Nc4ccc(I)cc4F)n(C)c(=O)c(C)c32)c1
- viability, T/C (compound 94.9 pM): 91.6% and 97.1%
- viability, T/C (compound 0.0003 µM): 58.9% and 67.7%
- viability, T/C (compound 0.000949 µM): 36.9% and 48.5%
- viability, T/C (compound 0.003 µM): 25.6% and 25.7%
- viability, T/C (compound 0.00949 µM): 17.6% and 20.3%
- viability, T/C (compound 0.03 µM): 11.1%
- IC50 (curve of compound): 0.49 nM and 0.767 nM

Compound: CC(C)(C)c1nc(-c2cccc(NS(=O)(=O)c3c(F)cccc3F)c2F)c(-c2ccnc(N)n2)s1
- viability, T/C (compound 0.0316 µM): 109% and 122%
- viability, T/C (compound 0.1 µM): 117% and 139%
- viability, T/C (compound 0.316 µM): 111% and 110%
- viability, T/C (compound 1 µM): 85% and 84.2%
- viability, T/C (compound 3.16 µM): 62.5% and 67.1%
- viability, T/C (compound 10 µM): 34% and 30.9%
- IC50 (curve of compound): 4980 nM

Compound: CC(C)CC(NC(=O)C(Cc1ccccc1)NC(=O)c1cnccn1)B(O)O (stereo unspecified)
- viability, T/C (compound 31.6 pM): 99.4% and 103%
- viability, T/C (compound 0.0001 µM): 102%
- viability, T/C (compound 0.000316 µM): 104% and 107%
- viability, T/C (compound 0.001 µM): 96.7% and 104%
- viability, T/C (compound 0.00316 µM): 88.3% and 74.9%
- viability, T/C (compound 0.01 µM): 7.89% and 7.64%
- IC50 (curve of compound): 5.46 nM and 4.85 nM

Compound: CC(C)CC(NC(=O)CNC(=O)c1cc(Cl)ccc1Cl)B1OC(=O)CC(CC(=O)O)(C(=O)O)O1 (stereo unspecified)
- viability, T/C (compound 0.000316 µM): 99.7% and 104%
- viability, T/C (compound 0.001 µM): 107% and 92.5%
- viability, T/C (compound 0.00316 µM): 105% and 99.2%
- viability, T/C (compound 0.01 µM): 107% and 102%
- viability, T/C (compound 0.0316 µM): 37.5% and 35.4%
- viability, T/C (compound 0.1 µM): 11.4% and 6.93%
- IC50 (curve of compound): 25.5 nM and 24.4 nM

Compound: CC(C)NCC(C(=O)N1CCN(c2ncnc3c2C(C)CC3O)CC1)c1ccc(Cl)cc1 (stereo unspecified)
- viability, T/C (compound 0.3 µM): 87.8% [middle of 10 runs]
- viability, T/C (compound 0.949 µM): 83% [middle of 10 runs]
- viability, T/C (compound 3 µM): 77.3% [middle of 10 runs]
- viability, T/C (compound 9.49 µM): 62.3% [middle of 10 runs]
- viability, T/C (compound 30 µM): 42.4% [middle of 10 runs]
- IC50 (compound alone, run of 02/20/2020): 18800 nM

Compound: CC(C)n1nc(-c2ccc3oc(N)nc3c2)c2c(N)ncnc21
- viability, T/C (compound 0.000316 µM): 101% and 103%
- viability, T/C (compound 0.001 µM): 87.1% and 91%
- viability, T/C (compound 0.00316 µM): 75.5% and 74.6%
- viability, T/C (compound 0.01 µM): 61.5% and 58.3%
- viability, T/C (compound 0.0316 µM): 40.3% and 43%
- viability, T/C (compound 0.1 µM): 31.9% and 32.7%
- IC50 (curve of compound): 19.3 nM and 18.6 nM

Compound: CCCS(=O)(=O)Nc1ccc(F)c(C(=O)c2c[nH]c3ncc(-c4ccc(Cl)cc4)cc23)c1F
- viability, T/C (compound 0.316 µM): 113% and 128%
- viability, T/C (compound 1 µM): 117% and 127%
- viability, T/C (compound 3.16 µM): 108% and 113%
- viability, T/C (compound 10 µM): 55.1% and 67.5%
- viability, T/C (compound 31.6 µM): 99.6% and 62.3%
- viability, T/C (compound 100 µM): 80% and 94.5%
- IC50 (curve of compound): > 100000 nM

Compound: COC1CC2CCC(C)C(O)(O2)C(=O)C(=O)N2CCCCC2C(=O)OC(C(C)CC2CCC(OCCO)C(OC)C2)CC(=O)C(C)C=C(C)C(O)C(OC)C(=O)C(C)CC(C)C=CC=CC=C1C (stereo unspecified)
- viability, T/C (compound 0.000316 µM): 83.9% and 83.3%
- viability, T/C (compound 0.001 µM): 76.6% and 71.4%
- viability, T/C (compound 0.00316 µM): 71.5% and 66.5%
- viability, T/C (compound 0.01 µM): 64.1% and 59%
- viability, T/C (compound 0.0316 µM): 59.8% and 64.2%
- viability, T/C (compound 0.1 µM): 59.2% and 62.3%
- IC50 (curve of compound): > 100 nM

Compound: COc1c(OCCCN2CCOCC2)ccc2c3n(c(=NC(=O)c4cnc(N)nc4)nc12)CCN3
- viability, T/C (compound 0.00316 µM): 74.5% and 83.2%
- viability, T/C (compound 0.01 µM): 43.7% and 51.3%
- viability, T/C (compound 0.0316 µM): 28.2% and 30.1%
- viability, T/C (compound 0.1 µM): 14.5% and 16.6%
- viability, T/C (compound 0.316 µM): 10.4% and 12.4%
- viability, T/C (compound 1 µM): 8.83% and 11.2%
- IC50 (curve of compound): 8.15 nM and 10.9 nM

Compound: Cc1nc(NC(=O)N2CCCC2C(N)=O)sc1-c1ccnc(C(C)(C)C(F)(F)F)c1 (stereo unspecified)
- viability, T/C (compound 0.0316 µM): 97.9% and 99.8%
- viability, T/C (compound 0.1 µM): 78.4% and 71.1%
- viability, T/C (compound 0.316 µM): 61.5% and 55.7%
- viability, T/C (compound 1 µM): 44.4% and 38.9%
- viability, T/C (compound 3.16 µM): 30.1% and 28.9%
- viability, T/C (compound 10 µM): 20.4% and 22.4%
- IC50 (curve of compound): 672 nM and 422 nM

Compound: Cn1cnc2c(F)c(Nc3ccc(Br)cc3Cl)c(C(=O)NOCCO)cc21
- viability, T/C (compound 0.00949 µM): 57.2% and 47.3%
- viability, T/C (compound 0.03 µM): 40.2% and 34.1%
- viability, T/C (compound 0.0949 µM): 33.8% and 27.4%
- viability, T/C (compound 0.3 µM): 31% and 24.2%
- viability, T/C (compound 0.949 µM): 25.6% and 21.6%
- viability, T/C (compound 3 µM): 15.3% and 11.8%
- IC50 (curve of compound): 15.8 nM and < 9.49 nM

Compound: COC1CC2CCC(C)C(O)(O2)C(=O)C(=O)N2CCCCC2C(=O)OC(C(C)CC2CCC(OCCO)C(OC)C2)CC(=O)C(C)C=C(C)C(O)C(OC)C(=O)C(C)CC(C)C=CC=CC=C1C (stereo unspecified) + CC(C)NCC(C(=O)N1CCN(c2ncnc3c2C(C)CC3O)CC1)c1ccc(Cl)cc1
- IC50 (curve of first compound, second compound 0.3 µM): 5.01 nM
- IC50 (curve of first compound, second compound 0.949 µM): 4.77 nM
- IC50 (curve of first compound, second compound 3 µM): 1.41 nM
- IC50 (curve of first compound, second compound 9.49 µM): < 0.316 nM
- IC50 (curve of first compound, second compound 30 µM): < 0.316 nM
- viability, T/C (second compound 0.3 µM, first compound 0.000316 µM): 64.3%
- viability, T/C (second compound 0.3 µM, first compound 0.001 µM): 56.9%
- viability, T/C (second compound 0.3 µM, first compound 0.00316 µM): 49.4%
- viability, T/C (second compound 0.3 µM, first compound 0.01 µM): 50.6%
- viability, T/C (second compound 0.3 µM, first compound 0.0316 µM): 45.3%
- viability, T/C (second compound 0.3 µM, first compound 0.1 µM): 46.1%
- viability, T/C (second compound 0.949 µM, first compound 0.000316 µM): 65.7%
- viability, T/C (second compound 0.949 µM, first compound 0.001 µM): 59.9%
- viability, T/C (second compound 0.949 µM, first compound 0.00316 µM): 50.2%
- viability, T/C (second compound 0.949 µM, first compound 0.01 µM): 46.6%
- viability, T/C (second compound 0.949 µM, first compound 0.0316 µM): 44.9%
- viability, T/C (second compound 0.949 µM, first compound 0.1 µM): 45.2%
- viability, T/C (second compound 3 µM, first compound 0.000316 µM): 60%
- viability, T/C (second compound 3 µM, first compound 0.001 µM): 53.3%
- viability, T/C (second compound 3 µM, first compound 0.00316 µM): 45.1%
- viability, T/C (second compound 3 µM, first compound 0.01 µM): 42.4%
- viability, T/C (second compound 3 µM, first compound 0.0316 µM): 43.8%
- viability, T/C (second compound 3 µM, first compound 0.1 µM): 41.6%
- viability, T/C (second compound 9.49 µM, first compound 0.000316 µM): 47.9%
- viability, T/C (second compound 9.49 µM, first compound 0.001 µM): 39.8%
- viability, T/C (second compound 9.49 µM, first compound 0.00316 µM): 35.7%
- viability, T/C (second compound 9.49 µM, first compound 0.01 µM): 33.2%
- viability, T/C (second compound 9.49 µM, first compound 0.0316 µM): 32.7%
- viability, T/C (second compound 9.49 µM, first compound 0.1 µM): 32.9%
- viability, T/C (second compound 30 µM, first compound 0.000316 µM): 33.4%
- viability, T/C (second compound 30 µM, first compound 0.001 µM): 30.6%
- viability, T/C (second compound 30 µM, first compound 0.00316 µM): 29%
- viability, T/C (second compound 30 µM, first compound 0.01 µM): 26.3%
- viability, T/C (second compound 30 µM, first compound 0.0316 µM): 26.2%
- viability, T/C (second compound 30 µM, first compound 0.1 µM): 24.3%

Source: PubChem BioAssay AID2060357 (Molecular Pharmacology Branch, DTP, NCI, 2025)
